Reference: publication PMC9205682 (Biochimica et biophysica acta. Biomembranes, 2021)

Target: Mycobacterial membrane protein large 3 (Mmpl3) (Mycolicibacterium smegmatis, UniProt A0QP27)
Experiment: MicroScale Thermophoresis
Type: binding

Mycobacterial membrane protein large 3 (Mmpl3), sequence (A0QP27 whole entry): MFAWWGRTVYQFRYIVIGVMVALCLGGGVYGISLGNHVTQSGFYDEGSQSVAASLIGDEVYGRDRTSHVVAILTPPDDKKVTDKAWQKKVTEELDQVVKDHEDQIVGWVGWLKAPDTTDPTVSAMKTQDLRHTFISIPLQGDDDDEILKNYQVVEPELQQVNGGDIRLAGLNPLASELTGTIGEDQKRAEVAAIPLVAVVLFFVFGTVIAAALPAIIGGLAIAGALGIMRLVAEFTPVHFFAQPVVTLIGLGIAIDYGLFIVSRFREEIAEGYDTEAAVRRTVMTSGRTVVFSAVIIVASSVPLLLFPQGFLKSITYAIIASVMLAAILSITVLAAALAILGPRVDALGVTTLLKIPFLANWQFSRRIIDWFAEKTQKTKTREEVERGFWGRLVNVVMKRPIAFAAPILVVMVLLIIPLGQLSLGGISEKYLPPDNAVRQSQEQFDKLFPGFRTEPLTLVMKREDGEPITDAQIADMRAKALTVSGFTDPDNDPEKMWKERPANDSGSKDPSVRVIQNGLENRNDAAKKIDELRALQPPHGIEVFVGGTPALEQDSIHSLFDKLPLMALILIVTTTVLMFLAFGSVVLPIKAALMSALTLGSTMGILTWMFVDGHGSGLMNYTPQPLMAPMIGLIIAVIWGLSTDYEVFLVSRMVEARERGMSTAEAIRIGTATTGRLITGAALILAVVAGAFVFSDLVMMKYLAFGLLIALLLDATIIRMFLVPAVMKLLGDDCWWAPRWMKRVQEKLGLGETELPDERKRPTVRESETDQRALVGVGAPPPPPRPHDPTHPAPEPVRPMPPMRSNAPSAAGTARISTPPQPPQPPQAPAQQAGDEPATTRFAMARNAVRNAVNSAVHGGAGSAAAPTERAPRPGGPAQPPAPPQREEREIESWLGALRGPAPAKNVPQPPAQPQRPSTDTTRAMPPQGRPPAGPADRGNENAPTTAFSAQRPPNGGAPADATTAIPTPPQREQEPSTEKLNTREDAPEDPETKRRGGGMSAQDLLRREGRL

CC(C)=CCC/C(C)=C/CNCCNC1C2CC3CC(C2)CC1C3 (stereo not shown) [SQ109] showed a Kd of 1.56 µM.
